# Measured values reported in patent publication US20150306107A1, “SAA Derivative Compound Restores eNOS And Inhibits Oxidative Stress-Induced A Diseases In Hypoxia” (JANSFAT BIOTECHNOLOGY CO., LTD., priority 2014, published 2015).
# How the values were obtained:
# eNOS = assay: Immunohistochemistry of eNOS in isolated pulmonary artery after short-term hypoxia; format: cell-based, rat; conditions: short-term acute hypoxia; 40, 80 μM
# Protocol: (§1) In our in vitro short-term experiment, isolated rat pulmonary artery was grown under normoxia (20% O2) or hypoxia (1% O2) at 37° C. for 24 hrs as was previously done (Wu BN, et al. Int J Immunopathol Pharmacol 24:925, 2011). The heart weight and body weight ratio (HW/BW) of the rats treated with one of SPAAX-1, SPAAX-1 RX complex, Sildenafil or Sildenafil RX complex each measured on the 21st hypoxic day. All animal care and the experimental protocols of this study were approved by the Animal Care and Use Committee of the Kaohsiung Medical University. Male Wistar rats (200-250 g), provided by the National Laboratory Animal Breeding and Research Center (Taipei, Taiwan), were housed under constant temperature and controlled illumination. Food and water were available ad libitum.
# (§2) For histological analysis, the rat pulmonary right lung sections or pulmonary artery were fixed in 4% formaldehyde for 1 hour at 4° C. After washing with phosphate buffer saline (PBS), they were sent for paraffin-embedded serial-sections. Serial cross-sections 7 μm thick were obtained from the cross-section of each pulmonary artery. Tissue sections were deparaffinized and rehydrated in an ethanol series. After tissue rehydration, endogenous peroxidase activity was quenched with 3% hydrogen peroxide for 30 minutes, and the sections were gently washed in PBS. […]
# VEGF = assay: Immunohistochemistry of VEGF in isolated pulmonary artery after short-term hypoxia; format: cell-based, rat; conditions: short-term acute hypoxia; 40, 80 μM
# Protocol: as §1, §2
substance,measurement,setting,value
L-sodium ascorbate+L-ascorbic acid buffer [ascorbic/ascorbate buffer],IHC of eNOS in isolated pulmonary artery,eNOS,reduced
same,IHC of VEGF in isolated pulmonary artery,VEGF,reduced
